Experimental data from patent US20260015662A1, “DETECTING ANTIBIOTIC AND/OR CHEMICAL USE IN ANIMALS USING EPIGENETIC MEANS” (Evonik Operations GmbH, priority 2022, published 2026).
Where a name gives a salt, the structure may show the parent alone.

Tests used:
[1] = system: IPEC2 cells (swine intestinal cell line IPEC2-J2); assay: Methylated DNA quantification in swine intestinal cell line treated with antibiotics; assay type: cell-based; settings: for average amount of methylated DNA: Tet 200 mg/L, Amx 100 mg/L, Col 480 mg/L, ± SEM; for size of the reduction in overall DNA methylation (rank among the three antibiotics): within 24 hrs of treatment, compared with antibiotic free control cells
Protocol: An in vitro to investigate the effects of three different antibiotics on the DNA methylation quantity in a swine intestinal cell line.
An immortalised cell line from swine intestines (IPEC2-J2 ACC 701 from DSMZ cell culture) was utilized in the 7th passage. In a 12 well, flat-bottom plate, 1×10^4 cel|s/well were seeded with DPBS D8537 (Sigma-Aldrich) and initially incubated for 4 days. After incubation cells were treated with one of 4 treatments for up to an additional 4 days: • 1) Incubation for 4 days without any antibiotics • 2) Incubation for 1 day with antibiotics followed by incubation for 1-3 days in antibiotic free media • 3) Incubation for 2 days with antibiotics followed by incubation for 1-2 days in antibiotic free media • 4) Incubation for 3 days with antibiotics followed by incubation for 1 day in antibiotic free media
Treatments 2, 3 and 4 were repeated with 3 different antibiotic treatments; tetracycline hydrochloride at 200 mg/L, Amoxicillin at 100 mg/L and Colistin at 480 mg/L. Duplicate cells per treatment were harvested at each time point. Media was removed, cells were washed once with DPBS, and a cell scraper was used to disassociate the cells from the bottom of the well. Cell pellets were then stored at −80° C. until DNA could be isolated using the NuceloSpin® DNA Stool Kit (Macherey and Nagel). Methylation grade of 100ng of isolated DNA was determined using the Imprint® Methylated DNA Quantification Kit (Sigma-Aldrich) which compared samples to a standard curve of known methylated DNA.

[2] = cited from earlier work; for Absorption: absorption level of the antibiotic
[3] = 1 day with antibiotic before washing, harvested Day 1
[4] = 1 day with antibiotic before washing, harvested Day 2
[5] = 1 day with antibiotic before washing, harvested Day 3
[6] = 1 day with antibiotic before washing, harvested Day 4
[7] = 2 days with antibiotic before washing, harvested Day 2
[8] = 2 days with antibiotic before washing, harvested Day 3
[9] = 2 days with antibiotic before washing, harvested Day 4
[10] = 3 days with antibiotic before washing, harvested Day 3
[11] = 3 days with antibiotic before washing, harvested Day 4

Row | Compound | average amount of methylated DNA [1, 3] | average amount of methylated DNA [1, 4] | average amount of methylated DNA [1, 5] | average amount of methylated DNA [1, 6] | average amount of methylated DNA [1, 7] | average amount of methylated DNA [1, 8] | average amount of methylated DNA [1, 9] | average amount of methylated DNA [1, 10] | average amount of methylated DNA [1, 11] | size of the reduction in overall DNA methylation (rank among the three antibiotics) [1] | Absorption [2] | Recommended Withdrawal for Broilers [2]
1 | Colistin | 26.1 ± 5.0 ng/100 ng isolated DNA | 11.7 ± 6.8 ng/100 ng isolated DNA | 19.6 ± 5.5 ng/100 ng isolated DNA | 24.9 ± 0.8 ng/100 ng isolated DNA | 29.5 ± 3.8 ng/100 ng isolated DNA | 1.4 ± 7.9 ng/100 ng isolated DNA | 19.0 ± 5.4 ng/100 ng isolated DNA | 29.1 ± 18.0 ng/100 ng isolated DNA | 28.5 ± 16.4 ng/100 ng isolated DNA | finally |  | 
2 | Bacitracin Methylene Disalicylate [BMD] |  |  |  |  |  |  |  |  |  |  | Local | None required
3 | CC[C@H]1OC(=O)C[C@@H](O)[C@H](C)[C@@H](O[C@@H]2O[C@H](C)[C@@H](O[C@H]3C[C@@](C)(O)[C@@H](O)[C@H](C)O3)[C@H](N(C)C)[C@H]2O)[C@@H](CC=O)C[C@@H](C)C(=O)/C=C/C(C)=C/[C@@H]1CO[C@@H]1O[C@H](C)[C@@H](O)[C@@H](OC)[C@H]1OC [Tylosin] |  |  |  |  |  |  |  |  |  |  | Systemic | 5 days
4 | CN(C)[C@@H]1C(O)=C(C(N)=O)C(=O)[C@@]2(O)C(O)=C3C(=O)c4c(O)cccc4[C@@](C)(O)[C@H]3C[C@@H]12 [Tet, tetracycline hydrochloride] | −5.6 ± 2.9 ng/100 ng isolated DNA | 12.0 ± 6.9 ng/100 ng isolated DNA | 18.2 ± 16.0 ng/100 ng isolated DNA | 25.8 ± 22.4 ng/100 ng isolated DNA | 0.1 ± 8.1 ng/100 ng isolated DNA | −8.6 ± 11.1 ng/100 ng isolated DNA | 7.4 ± 9.7 ng/100 ng isolated DNA | 6.0 ± 13.2 ng/100 ng isolated DNA | 21.7^3 ng/100 ng isolated DNA | largest |  | 
5 | CC1(C)S[C@@H]2[C@H](NC(=O)[C@H](N)c3ccc(O)cc3)C(=O)N2[C@H]1C(=O)O [Amoxicillin] | 4.1 ± 8.9 ng/100 ng isolated DNA | 12.3 ± 3.2 ng/100 ng isolated DNA | 20.4 ± 8.3 ng/100 ng isolated DNA | 19.0 ± 2.1 ng/100 ng isolated DNA | 20.9 ± 10.4 ng/100 ng isolated DNA | 9.8 ± 4.7 ng/100 ng isolated DNA | 21.3 ± 3.4 ng/100 ng isolated DNA | 26.0 ± 10.2 ng/100 ng isolated DNA | 10.2 ± 9.4 ng/100 ng isolated DNA |  | Systemic | 1 to 4 days
